Measured values published in patent publication EP4635500A1, “THERAPEUTIC AGENT FOR BACTERIAL INFECTION” (Sumitomo Pharma Co., Ltd., priority 2022, dated 2024).
Values after ≈ are worked out from the molar mass of the structure shown. Like-named read-outs stand apart in the source and are kept apart here.

Key:
[1] = system: carbapenemase-producing Enterobacteriaceae (CPE); test: MIC in human urine and CAMHB at pH 5.0 to 8.0 (Example 13, Tables 29, 30); details: Klebsiella pneumoniae
Klebsiella pneumoniae = test: MIC, Gram-negative bacteria clinically isolated in the United States (Example 8, Table 16); assay type: cell-based; details: K. pneumoniae (80 strains) isolated in the United States, Compound A µg/mL in parentheses
Serratia marcescens = test: MIC, broth microdilution, standard strains and Japanese clinical isolates (Example 5, Table 4); assay type: cell-based
[2] = system: E. coli ATCCBAA-2469 producing NDM-1; test: Systemic infection lethal mouse model, ED50 (Example 14, Table 32); details: 7 days after infection
Procedure: (§1) The test strains on the agar medium were suspended in saline and adjusted to a Klett unit of about 200 using a Klett Photoelectric Colorimeter. […] Male ICR mice were inoculated intraperitoneally with 0.2 mL of the bacterial suspension. Two hours after the inoculation, saline or a solution for administering the agent at each concentration was administered subcutaneously to the mice in a single dose. The number of mice that survived from Day 1 to Day 7 after infection was recorded.

[3] = system: carbapenemase-producing Enterobacteriaceae (CPE); test: Bactericidal activity by bactericidal curve method (Example 10); assay type: cell-based, E. coli, Klebsiella pneumoniae; details: MEPM ≥1 x MIC; within 1 to 2 hours after culture; all four strains
E. coli = test: MIC, Gram-negative bacteria clinically isolated in the United States (Example 8, Table 16); assay type: cell-based; details: E. coli (80 strains) isolated in the United States, Compound A µg/mL in parentheses
[4] = system: K. pneumoniae ATCCBAA-2344 producing KPC-2; test: Systemic infection lethal mouse model, ED50 (Example 14, Table 31); details: 7 days after infection
Procedure: as §1

[5] = mouse, in vivo
A. baumannii = test: MIC, Gram-negative bacteria clinically isolated in the United States (Example 8, Table 16); assay type: cell-based; details: Acinetobacter baumannii; A. baumannii (80 strains) isolated in the United States; Compound A µg/mL in parentheses
Klebsiella aerogenes = test: MIC, broth microdilution, standard strains and Japanese clinical isolates (Example 5, Table 4); assay type: cell-based; details: carbapenemase genes -
[6] = cited from earlier work

C[C@@H](O)[C@H]1C(=O)N2C(C(=O)O)=C(S[C@@H]3CN[C@H](C(=O)N(C)C)C3)[C@H](C)[C@H]12 [MEPM, meropenem]
MIC ([1]; ATCCBAA2470, pH 5, read-out: MICs of MEPM, K. pneumoniae ATCC BAA-2470 (NDM-1), CAMHB pH5.0): 0.12 µg/mL (≈ 0.313 µM)
MIC ([1]; ATCCBAA2470, pH 5, read-out: MICs of MEPM, K. pneumoniae ATCC BAA-2470 (NDM-1), Human urine pH5.0): 0.12 µg/mL (≈ 0.313 µM)
MIC ([1]; ATCCBAA2470, pH 6, read-out: MICs of MEPM, K. pneumoniae ATCC BAA-2470 (NDM-1), CAMHB pH6.0): 8 µg/mL (≈ 20.9 µM)
MIC ([1]; ATCCBAA2470, pH 6, read-out: MICs of MEPM, K. pneumoniae ATCC BAA-2470 (NDM-1), Human urine pH6.0): 0.12 µg/mL (≈ 0.313 µM)
MIC ([1]; ATCCBAA2470, pH 7, read-out: MICs of MEPM, K. pneumoniae ATCC BAA-2470 (NDM-1), Human urine pH7.0): 16 µg/mL (≈ 41.7 µM)
MIC ([1]; ATCCBAA2470, pH 7.2, read-out: MICs of MEPM, K. pneumoniae ATCC BAA-2470 (NDM-1), Standard condition (CAMHB pH7.2)): 16 µg/mL (≈ 41.7 µM)
MIC ([1]; ATCCBAA2470, pH 8, read-out: MICs of MEPM, K. pneumoniae ATCC BAA-2470 (NDM-1), CAMHB pH8.0): 64 µg/mL (≈ 167 µM)
MIC ([1]; ATCCBAA2470, pH 8, read-out: MICs of MEPM, K. pneumoniae ATCC BAA-2470 (NDM-1), Human urine pH8.0): 8 µg/mL (≈ 20.9 µM)
MIC ([1]; ATCCBAA2524, pH 5, read-out: MICs of MEPM, K. pneumoniae ATCC BAA-2524 (OXA-48), CAMHB pH5.0): 0.25 µg/mL (≈ 0.652 µM)
MIC ([1]; ATCCBAA2524, pH 5, read-out: MICs of MEPM, K. pneumoniae ATCC BAA-2524 (OXA-48), Human urine pH5.0): 0.25 µg/mL (≈ 0.652 µM)
MIC ([1]; ATCCBAA2524, pH 6, read-out: MICs of MEPM, K. pneumoniae ATCC BAA-2524 (OXA-48), CAMHB pH6.0): 0.25 µg/mL (≈ 0.652 µM)
MIC ([1]; ATCCBAA2524, pH 6, read-out: MICs of MEPM, K. pneumoniae ATCC BAA-2524 (OXA-48), Human urine pH6.0): 0.25 µg/mL (≈ 0.652 µM)
MIC ([1]; ATCCBAA2524, pH 7, read-out: MICs of MEPM, K. pneumoniae ATCC BAA-2524 (OXA-48), Human urine pH7.0): 0.25 µg/mL (≈ 0.652 µM)
MIC ([1]; ATCCBAA2524, pH 7.2, read-out: MICs of MEPM, K. pneumoniae ATCC BAA-2524 (OXA-48), Standard condition (CAMHB pH7.2)): 1 µg/mL (≈ 2.61 µM)
MIC ([1]; ATCCBAA2524, pH 8, read-out: MICs of MEPM, K. pneumoniae ATCC BAA-2524 (OXA-48), CAMHB pH8.0): 4 µg/mL (≈ 10.4 µM)
MIC ([1]; ATCCBAA2524, pH 8, read-out: MICs of MEPM, K. pneumoniae ATCC BAA-2524 (OXA-48), Human urine pH8.0): 1 µg/mL (≈ 2.61 µM)
MIC ([1]; NCTC13439, pH 5, read-out: MICs of MEPM, K. pneumoniae NCTC13439 (VIM-1), CAMHB pH5.0): 0.12 µg/mL (≈ 0.313 µM)
MIC ([1]; NCTC13439, pH 5, read-out: MICs of MEPM, K. pneumoniae NCTC13439 (VIM-1), Human urine pH5.0): 0.12 µg/mL (≈ 0.313 µM)
MIC ([1]; NCTC13439, pH 6, read-out: MICs of MEPM, K. pneumoniae NCTC13439 (VIM-1), CAMHB pH6.0): 1 µg/mL (≈ 2.61 µM)
MIC ([1]; NCTC13439, pH 6, read-out: MICs of MEPM, K. pneumoniae NCTC13439 (VIM-1), Human urine pH6.0): 0.06 µg/mL (≈ 0.156 µM)
MIC ([1]; NCTC13439, pH 7, read-out: MICs of MEPM, K. pneumoniae NCTC13439 (VIM-1), Human urine pH7.0): 2 µg/mL (≈ 5.22 µM)
MIC ([1]; NCTC13439, pH 7.2, read-out: MICs of MEPM, K. pneumoniae NCTC13439 (VIM-1), Standard condition (CAMHB pH7.2)): 4 µg/mL (≈ 10.4 µM)
MIC ([1]; NCTC13439, pH 8, read-out: MICs of MEPM, K. pneumoniae NCTC13439 (VIM-1), CAMHB pH8.0): 4 µg/mL (≈ 10.4 µM)
MIC ([1]; NCTC13439, pH 8, read-out: MICs of MEPM, K. pneumoniae NCTC13439 (VIM-1), Human urine pH8.0): 1 µg/mL (≈ 2.61 µM)
MIC50 (Klebsiella pneumoniae): ≤ 0.125 µg/mL
MIC90 (Klebsiella pneumoniae): 4 µg/mL (≈ 10.4 µM)
MIC (Serratia marcescens; KUB3169 Serratia marcescens Clinical isolate, carbapenemase genes Unidentified, read-out: MIC): 2 µg/mL (≈ 5.22 µM)
MIC (Serratia marcescens; KUB3170 Serratia marcescens Clinical isolate, carbapenemase genes Unidentified): 2 µg/mL (≈ 5.22 µM)
MIC (Serratia marcescens; KUB3171 Serratia marcescens Clinical isolate, carbapenemase genes -): 2 µg/mL (≈ 5.22 µM)
Survival rate ([2]; Dose 10 mg/kg): 10%
Survival rate ([2]; Dose 30 mg/kg): 0%
Survival rate ([2]; Dose 60 mg/kg): 0%
Survival rate ([2]; Dose 100 mg/kg): 80%
reduction in the number of bacteria compared to preculture level [3]: 3 log10
MICrange (E. coli): ≤0.125 to 16 µg/mL
MIC50 (E. coli; Escherichia coli): ≤ 0.125 µg/mL
MIC90 (E. coli; Escherichia coli): ≤ 0.125 µg/mL
Survival rate ([4]; Dose 10 mg/kg): 10%
Survival rate ([4]; Dose 30 mg/kg): 10%
Survival rate ([4]; Dose 60 mg/kg): 10%
Survival rate ([4]; Dose 100 mg/kg): 50%
%fT > 8 µg/mL [5]: ≥ 40%
MIC50 (A. baumannii): 2 µg/mL (≈ 5.22 µM)
MIC90 (A. baumannii): 64 µg/mL (≈ 167 µM)
MIC (Klebsiella aerogenes; KUB3614 Klebsiella aerogenes Clinical isolate): 2 µg/mL (≈ 5.22 µM)
MIC (Klebsiella aerogenes; KUB3615 Klebsiella aerogenes Clinical isolate): 0.12 µg/mL (≈ 0.313 µM)
human protein binding rate ([6]; Reference 2): 2%
Cmax ([6]; human, 2 g intravenously for 3 hours every 8 hours, Reference 3): 46000 ng/mL
